Measured values as given in paper PMC2900413 (Biochemical pharmacology, 2010).
“Also recorded” adds a separate entry of the source.

How the values were obtained:
A2AAR [1] = settings: read-out: Ki, radioligand binding; reported values; ref [1], [27], [28], [29]; cited from earlier work
A2AAR [2] = target: A2AAR (Homo sapiens, UniProt P29274); assay: Cyclic AMP accumulation assay, CHO cells expressing the A2AAR; settings: CGS21680-induced cyclic AMP accumulation in CHO cells expressing the A2AAR
A3 AR = target: T1, A3 AR (Homo sapiens, UniProt P0DMS8); assay: Radioligand membrane binding assay at the A3 AR with [125I]AB-MECA
T1 sequence (P0DMS8 1-318): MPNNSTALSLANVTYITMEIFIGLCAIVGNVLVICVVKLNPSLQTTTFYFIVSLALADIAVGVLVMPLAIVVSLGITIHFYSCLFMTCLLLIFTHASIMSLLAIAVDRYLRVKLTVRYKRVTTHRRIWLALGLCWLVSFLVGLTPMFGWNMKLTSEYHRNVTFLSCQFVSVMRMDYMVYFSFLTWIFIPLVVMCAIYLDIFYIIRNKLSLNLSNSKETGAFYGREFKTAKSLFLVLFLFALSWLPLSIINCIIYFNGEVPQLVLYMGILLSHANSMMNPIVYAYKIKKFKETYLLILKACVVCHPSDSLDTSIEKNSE

A2B AR = target: T2, A2B AR (Homo sapiens, UniProt P29275); assay: Cyclic AMP accumulation assay, CHO cells expressing the A2B AR; format: cell-based; settings: at 10 μM
T2 sequence (P29275 1-332): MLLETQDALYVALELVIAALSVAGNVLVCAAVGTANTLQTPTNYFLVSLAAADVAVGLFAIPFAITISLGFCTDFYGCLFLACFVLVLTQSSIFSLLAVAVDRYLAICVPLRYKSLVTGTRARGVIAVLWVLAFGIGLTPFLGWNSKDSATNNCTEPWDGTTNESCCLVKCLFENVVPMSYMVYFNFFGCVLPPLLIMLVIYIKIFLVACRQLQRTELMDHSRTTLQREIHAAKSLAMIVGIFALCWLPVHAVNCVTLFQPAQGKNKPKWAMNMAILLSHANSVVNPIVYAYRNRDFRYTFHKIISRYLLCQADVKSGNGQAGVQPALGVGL

A1 AR = target: T3, A1 AR (Homo sapiens, UniProt P30542); assay: Radioligand membrane binding assay at the A1 AR with [3H]R-PIA
T3 sequence (P30542 1-326): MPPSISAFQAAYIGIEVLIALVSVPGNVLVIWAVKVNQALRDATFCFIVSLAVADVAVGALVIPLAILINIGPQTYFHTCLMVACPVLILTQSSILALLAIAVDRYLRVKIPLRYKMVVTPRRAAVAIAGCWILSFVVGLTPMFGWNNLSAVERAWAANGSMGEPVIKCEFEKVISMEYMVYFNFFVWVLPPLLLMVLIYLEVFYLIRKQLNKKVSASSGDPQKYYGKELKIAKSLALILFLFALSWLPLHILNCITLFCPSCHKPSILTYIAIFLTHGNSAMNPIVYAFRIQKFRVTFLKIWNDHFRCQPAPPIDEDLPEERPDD

Sequence of A2AAR (Homo sapiens, UniProt P29274) (P29274 whole entry): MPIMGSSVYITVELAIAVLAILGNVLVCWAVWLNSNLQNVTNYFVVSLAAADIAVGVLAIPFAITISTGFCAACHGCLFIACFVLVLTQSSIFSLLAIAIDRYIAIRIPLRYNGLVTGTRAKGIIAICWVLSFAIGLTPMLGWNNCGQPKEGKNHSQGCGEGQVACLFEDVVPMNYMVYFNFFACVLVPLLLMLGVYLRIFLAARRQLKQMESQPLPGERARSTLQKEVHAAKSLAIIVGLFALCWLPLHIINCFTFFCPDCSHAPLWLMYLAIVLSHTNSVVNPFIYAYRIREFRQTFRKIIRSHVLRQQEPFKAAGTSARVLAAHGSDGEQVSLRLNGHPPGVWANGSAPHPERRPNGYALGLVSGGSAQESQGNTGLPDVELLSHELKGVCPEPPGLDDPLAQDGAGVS

| Compound | Ki (A2AAR [1]) [nM] | functional activity in cyclic AMP assay at the A2AAR (A2AAR [2]) | effect on A3 AR in binding (A3 AR; at 10 μM) | inhibition at 10 µM (A3 AR; read-out: inhibition of radioligand binding at A3 AR) [%] | effect on NECA-induced cyclic AMP accumulation (A2B AR) | effect on A1 AR in binding (A1 AR; at 10 μM) | inhibition at 10 µM (A1 AR; read-out: inhibition of radioligand binding at A1 AR) [%] |
| --- | --- | --- | --- | --- | --- | --- | --- |
| OC[C@H]1O[C@@H](n2cnc3c(NC4CCCC4)ncnc32)[C@H](O)[C@@H]1O [CPA] | 794 |  |  |  |  |  |  |
| N=c1ccc2c(-c3ccc(C(=O)NCCNC(=O)COc4ccc(CCCn5ncc6c5nc(N)n5nc(-c7ccco7)nc65)cc4)cc3C(=O)O)c3ccc(N)c(S(=O)(=O)O)c3oc-2c1S(=O)(=O)O [MRS5346, 5-((2-(2-(4-(3-(5-amino-2-(furan-2-yl)-7H-pyrazolo[4,3-e][1,2,4]triazolo[1,5-c]pyrimidin-7-yl)propyl)phenoxy)acetamido)-ethyl)-carbamoyl)-2-(6-amino-3-iminio-4,5-disulfonato-3H-xanthen-9-yl)benzoate] |  | antagonist; also recorded: inhibited cyclic AMP accumulation | did not show any effect | 3.8 ± 2.1 | did not show any effect; also recorded: did not inhibit | did not show any effect | 4.6 ± 1.9 |
